The source made the active and inactive calls. No cut-off for these calls is given here.

The subject of this experiment is HL-60. In words: Potentiation of cisplatin cytotoxicity against human HL60 cells. The format is functional, cell-based.
With `C[C@@H]1CC[C@@]2(OC1)O[C@H]1C[C@H]3[C@@H]4CC=C5C[C@@H](O[C@@H]6O[C@H](CO)[C@@H](O[C@@H]7OC[C@](O)(CO)[C@H]7O)[C@H](O)[C@H]6O[C@@H]6O[C@@H](C)[C@H](O)[C@@H](O)[C@H]6O)CC[C@]5(C)[C@H]4CC[C@]3(C)[C@H]1[C@@H]2C`, the outcome was inactive.

`C[C@@H]1CC[C@@]2(OC1)O[C@H]1C[C@H]3[C@@H]4CC=C5C[C@@H](O[C@@H]6O[C@H](CO)[C@@H](O[C@@H]7OC[C@](O)(CO)[C@H]7O)[C@H](O)[C@H]6O)CC[C@]5(C)[C@H]4CC[C@]3(C)[C@H]1[C@@H]2C`: the outcome was inactive. `C[C@@H]1CC[C@@]2(OC1)O[C@H]1C[C@H]3[C@@H]4CC=C5C[C@@H](O[C@@H]6O[C@H](CO)[C@@H](O[C@@H]7O[C@@H](C)[C@H](O)[C@@H](O)[C@H]7O)[C@H](O)[C@H]6O[C@@H]6O[C@@H](C)[C@H](O)[C@@H](O)[C@H]6O)CC[C@]5(C)[C@H]4CC[C@]3(C)[C@H]1[C@@H]2C`: the result was inactive.

Turning to `CC(=O)O[C@@H]1[C@@H](O)[C@@H](O)[C@H](O[C@H]2[C@H](O[C@H]3CC[C@@]4(C)C(=CC[C@H]5[C@@H]6C[C@@H]7O[C@]8(CC[C@@H](C)CO8)[C@@H](C)[C@@H]7[C@@]6(C)CC[C@@H]54)C3)O[C@H](CO)[C@@H](O[C@@H]3OC[C@](O)(CO)[C@H]3O)[C@@H]2O)O[C@H]1C`, the result was inactive.

For the origin of these results see ChEMBL document CHEMBL1158860, “New Diosgenin Glycosides from Costus afer” (J Nat Prod, 1997).
